Assay results: US20030186943A1, “Substituted gamma-phenyl-delta-lactams and uses related thereto” (Inflazyme Pharmaceuticals Ltd., priority 1998, published 2003)
Read-outs that look alike come from different tables or passages of the source. One block for each compound: values may come before it.

Legend:
[1] = system: cAMP response element luciferase activity in human U937 monocytic cells; experiment: Potentiation of forskolin-induced CRE-luciferase activity in U937 cells; format: cell-based; details: U-937, U937 cells co-incubated with 10 μM forskolin, 4 hours, X marks this range
How it was run: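 U937 cells electroporated with PCRE-luc reporter, recovered 16-18 h, then exposed to compound or vehicle with or without 10 μM forskolin for 4 h at 37 °C. Cell lysates read for luciferase luminescence.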

PDE 5 (human platelets) = biological target: T1, PDE 5 (human platelets) (Homo sapiens, UniProt O76074); experiment: PDE isozyme specificity: PDE 5; format: biochemical; details: for inhibition at 100 µM: read-out: % inhibition by 100 μM test compound 1-25, PDE5, X marks this range
T1 construct: PDE's for the various assays were partially purified from the following cells/tissues; tissue MDS Panlabs (assay service); host or cells: human platelets
From the text: Compound 12 was screened for activity against 5 of the major classes of mammalian cyclic nucleotide phosphodiesterase (termed PDE 1 through 5). PDE's 1 through 4 utilize cAMP as substrate while PDE 5 uses cGMP. The broad specificity PDE inhibitor 3-isobutyl-1-methylxanthine (IBMX; Sigma; Catalogue No. 17018)) was used as a positive control in all assays. PDE's for the various assays were partially purified from the following cells/tissues; PDE 1 (bovine heart), PDE 2 (human platelets), PDE 3 (human platelets), PDE 4 (human promonocytic U937 cells) and PDE 5 (human platelets).
Test compounds (at 100 μM) were screened for activity against PDE 1,2 and 5, using standard biochemical methods performed at MDS Panlabs (Bothell, Wash., USA). The broad specificity PDE inhibitor 3-isobutyl-1-methylxanthine (IBMX) was used as a positive control in all assays. PDE's for the various assays were partially purified from the following cells/tissues; PDE 1 (bovine heart), PDE 2 (human platelets) and PDE 5 (human platelets). For purposes of comparison, the effects on PDE3 (human platelets) and PDE4 (human U937 monocytic cell line) described above are presented again in Table 12.

[2] = system: IL-10 production in concanavalin A stimulated primary human CD4+ T-cells; experiment: IL-10 production (Th2 profile) in concanavalin A stimulated primary human CD4+ T-cells; format: cell-based; details: T-cell, 10 μg/mL Concanavalin A, 48 hours, X marks this range
From the text: The assay on the primary human T-cells involves their activation by concanavalin A (conA); (Sigma, Catalogue No. C 5275), followed by ELISA detection for cytokines for either profile. In the case of Th1-profiles, IL-2 and INF-γ are used as benchmarks while IL-10 is the indicator for a Th2-profile. Biologically, these indicators are useful in that IL-2 is the major T-cell mitogen while IL-10 represents a powerful yet selective immunosuppressive agent.
Approximately 60 cc of whole human blood was collected into ACD anti-coagulant vacutainer tubes. 15 mL Ficoll Paque 1077 was aliquoted into 6 sterile 50 mL conical tubes. 10 mL of blood was slowly layered on top of the Ficoll Paque by holding the tube upright and resting the pipette tip at the inside edge of the tube and allowing the blood to slowly run down the side of the tube. Tubes were spun at 1700 rpm for 30 minutes at room temperature. The plasma layer above the leukocyte band was aspirated off and a pasteur pipette was used to lift off the leukocyte band and transfer it to a sterile 50 mL conical tube. Cells from each leukocyte gradiant tube were transferred to a separate 50 mL conical tube. Sterile PBS pH 7.4 was added to each 50 mL conical tube containing cells from leukocyte band to a volume of 50 mL. Tubes were spun at 1100 rpm for 10 minutes. Supernatant was aspirated off and the cells were resuspended in 50 mL PBS pH 7.4. Tubes were re-centrifuged at 1100 rpm for 10 minutes. Supernatant was aspirated off and the cells were resuspended in appropriate medium at a density of 5×10^7 cells/mL or 2×10^6 cells/mL.
CD 4+T-cell Preparation: Cells from Leukocyte preparation were resuspended in sterile PBS pH 7.4 supplemented with 2-6% Fetal Bovine Serum (FBS) at a density of 5×10^7 cells/mL. Cells were then ready for isolation.
100 μL of antibody cocktail (Stem Cell Technologies, Catalogue No. 14062) was added for each mL of cells and mixed well. Cells+Ab cocktail was incubated on ice for 30 minutes. After 30 minute incubation, 60 μL of magnetic colloid was added for each mL of cells, and mixed well. Cells+Ab cocktail+magnetic colloid were incubated on ice for 30 minutes. After a final 30 minute incubation cells were ready for magnetic cell separation.
Sample was loaded into the top of a column. The stopcock was turned to allow the flow of media down through the column, and the media was collected into a collection tube. PBS supplemented with 2-6% FBS was added to the column until three column volumes had been collected (not including the volume of the start sample). Cells were washed, counted, and resuspended in RPMI 1640 with 10% FBS+2 mM L-glutamine at a density of 1×10^6 cells/mL.
CD4+ T-cells were isolated as described above. Cells were suspended in RPMI 1640 media (Stem Cell Technologies Inc.; Catalogue No. 36750) with 10% FBS+2 mM L-glutamine at a density of 1×10^6 cells/mL. Cells were maintained on ice as test compounds were prepared. Test compounds were prepared in a sterile 96-well assay plate at 50×the final desired test concentration, all wells contained an equal amount of dimethylsulfoxide vehicle. 500 μL of CD4^+ T-cells were added to each well of 24-well assay plate. 10 μL of each test compound working solution was added to the appropriate wells; two wells were left as stimulated and non-stimulated controls. 10 μL of concanavalin A (50×the final concentration) at 10 μg/mL was added to each well with the exception of the non-stimulated control wells. Cells were incubated at 37° C. for 48 hours. Conditioned media is then assessed by ELISA for the quantity of IL-2, […], TNFα and IL-10 present.
Tables 5A, 5B and 5C represent a synopsis of data across individuals with respects to the potency of compounds of the invention in their ability to inhibit cytokines that are likely to promote or depress a Th1 or Th2 response. […]

[3] = read-out: IL-10 IC50 RANGE (μM) 2.0-20
[4] = read-out: EC50 range (μM) 0.1-1
[5] = read-out: IL-10 IC50 RANGE (μM) 0.2-2.0
[6] = read-out: IL-10 IC50 RANGE (μM) 0.02-0.2

Compound: COc1cc(C[C@@H]2CC(c3ccc(OC)c(OC)c3)COC2=O)ccc1O (mixture of isomers) [Compound 12]
EC50 ([1]; read-out: EC50 range (μM) 1-25): 1 to 25 µM
inhibitory effect on PDE 5 (PDE 5 (human platelets); human platelets, cGMP substrate): no significant inhibitory effects
inhibition at 100 µM (PDE 5 (human platelets)): 1 to 25%

Compound: COc1cc(C[C@@H]2C[C@@H](c3ccc(OC)c(OC)c3)COC2=O)ccc1O [Compound 30]
IC50 [2, 3]: 2 to 20 µM
EC50 ([1]; read-out: EC50 range (μM) 1-25): 1 to 25 µM

Compound: COc1ccc([C@@H]2CCC(=O)OC2)cc1OC1CCCC1 [Compound 41]
EC50 [1, 4]: 0.1 to 1 µM
inhibition at 100 µM (PDE 5 (human platelets)): 1 to 25%

Compound: COc1cc(CC2C[C@@H](c3ccc(OC)c(OC4CCCC4)c3)COC2=O)ccc1O (some centres unmarked) [Compound 43]
IC50 [2, 3]: 2 to 20 µM
EC50 [1, 4]: 0.1 to 1 µM
inhibition at 100 µM (PDE 5 (human platelets)): 1 to 25%

Compound: COc1ccc([C@H]2CNC(=O)C(Cc3ccc(OCc4ccccc4)c(OC)c3)C2)cc1OC (some centres unmarked) [Compound 54]
IC50 [2, 5]: 0.2 to 2 µM
EC50 ([1]; read-out: EC50 range (μM) 1-25): 1 to 25 µM

IC50 [2, 5]: 0.2 to 2 µM
EC50 ([1]; read-out: EC50 range (μM) 1-25): 1 to 25 µM
Compound: COc1cc(CC2C[C@@H](c3ccc(OC)c(OC)c3)CNC2=O)ccc1O (some centres unmarked) [Compound 55]

Compound: COc1cc(CC2C[C@@H](c3ccc(OC)c(OC4CCCC4)c3)CNC2=O)ccc1O (some centres unmarked) [Compound 62]
IC50 [2, 6]: 0.02 to 0.2 µM
EC50 ([1]; read-out: EC50 range (μM) 1-25): 1 to 25 µM

Compound: COc1ccc(C2CNC(=O)C2)cc1OC1CCCC1 (centres unmarked) [Rolipram, reference compound]
IC50 [2, 6]: 0.02 to 0.2 µM
